Marks after values point to notes of the source that are not given here.
What was measured:
[1] = tested on: Wistar rats; assay: In vivo analgesia duration test using electrical stimulation (vocal response); parameters: species or system Wistar albino rats
Experimental: In vivo analgesia duration test was conducted using electrical stimulation testing, which was used as a means of determining analgesia in animals and humans (Grant et al., 2000). Testing for analgesia was done by a vocal response to electrical stimulation (beginning at 1 mA and increasing to a maximum of 8 mA) at the skin directly overlying the abdomen at the site of injection using a current generator. The abdominal hair of the experimental rats was shaved off, and they were screened prior to injection to determine their vocalization threshold, the current required to produce a vocalization response.
Animals will be treated in the following manner.
Polyherbal anaesthetic formulation, standard drug and 0.9% normal saline samples were injected subcutaneously into the abdomen of the experimental rats, followed by determination of analgesia at the fixed time intervals (5, 10, 20, 30, 40, 50, 60, and 70 min).

[2] = tested on: rats (tail, noxious heat stimulus); assay: Tail-flick latency (TFL) test of local anaesthetic effect; format: in vivo
Experimental: Local anaesthetic effects of LA-containing formulations were evaluated by tail-flick latency (TFL) test using a tail-flick measuring device (Ugo Basile, Varese, italy) (Puglia et al., 2011; Ouchi et al., 2013; Caffarel-Salvador et al., 2015). A noxious heat stimulus was applied via a focused, radiant heat light source to the dorsal surface of the tail. Tail-flick test started 5 min after the local application of different preparations, and the test was conducted every 10 min for 120 min. TFL was converted to represent the maximum possible effect (MPE) according to the following equation: […]
The baseline TFL was calculated as the mean of three different measurements taken at 10-min intervals. Baseline latencies were typically ranged from 2.5 to 3.0 s. A maximum cut-off latency of 10s was set to avoid tissue damage in analgesic animals. Results are expressed as mean±standard of eight rats per group.

With `CCN(CC)CC(=O)Nc1c(C)cccc1C` [lignocaine 2% solution, lignocaine] the “Median duration of analgesia” value ([1]; 0.05 mL subcutaneous injection into abdomen, rats) was 35 min, the “Percentage (%) of animals with analgesia” value ([1]; 5 minutes after 0.05 mL s.c.) was 100.00** % and the “Percentage (%) of animals with analgesia” value ([1]; 10 minutes after 0.05 mL s.c.) was 100.00** %. The “Percentage (%) of animals with analgesia” value ([1]; 20 minutes after 0.05 mL s.c.) was 100.00** %, the “Percentage (%) of animals with analgesia” value ([1]; 30 minutes after 0.05 mL s.c.) was 66.67** % and the “Percentage (%) of animals with analgesia” value ([1]; 40 minutes after 0.05 mL s.c.) was 33.33** %. The “Percentage (%) of animals with analgesia” value ([1]; 50 minutes after 0.05 mL s.c.) was 33.33** %, the “Percentage (%) of animals with analgesia” value ([1]; 60 minutes after 0.05 mL s.c.) was 16.67** % and the “Percentage (%) of animals with analgesia” value ([1]; 70 minutes after 0.05 mL s.c.) was 16.67** %. The “Duration of anaesthetic effect/activity after application” value [2] was “up to 30 min”.

— patent publication US20250213636A1, “A […] ANAESTHETIC FORMULATION AND A METHOD OF PREPARATION” (priority 2022, published 2025)
